Assay results reported in patent publication US20230022745A1, “Methods for Labeling a Population of RNA Molecules” (priority 2013, published 2023).
Entries after “also recorded” stand apart in the source; their conditions may differ.

B1: S. pombe HNT3 protein (protein, UniProt O74859 1-232, looked up)
Aprataxin-like protein: MSVHKTNDAFKVLMNSAKEPIVEDIPKKYRKQSFRDNLKVYIESPESYKNVIYYDDDVVLVRDMFPKSKMHLLLMTRDPHLTHVHPLEIMMKHRSLVEKLVSYVQGDLSGLIFDEARNCLSQQLTNEALCNYIKVGFHAGPSMNNLHLHIMTLDHVSPSLKNSAHYISFTSPFFVKIDTPTSNLPTRGTLTSLFQEDLKCWRCGETFGRHFTKLKAHLQEEYDDWLDKSVSM
B2: RppH (protein, UniProt P0A776 1-176, looked up)
RNA pyrophosphohydrolase: MIDDDGYRPNVGIVICNRQGQVMWARRFGQHSWQFPQGGINPGESAEQAMYRELFEEVGLSRKDVRILASTRNWLRYKLPKRLVRWDTKPVCIGQKQKWFLLQLVSGDAEINMQTSSTPEFDGWRWVSYWYPVRQVVSFKRDVYRRVMKEFASVVMSLQENTPKPQNASAYRRKRG

Assays:
Type in all cases: biochemical
[1] = test system: Vaccinia Capping Enzyme (VCE)
[2] = test system: Vaccinia Capping Enzyme (VCE); remark: listed apart in the source
[3] = test system: Cap0 or Cap1 25 mer transcript; conditions: 5-135 ng protein, 10 minutes at 30° C.
[4] = test system: 3′ DTB-GTP capped 25mer T7 transcript; conditions: 30 minutes at 37° C. in 1× Thermopol Buffer

| Molecule | recovery of transcript after streptavidin binding and biotin elution [1] | capping of 5′ triphosphorylated RNA by VCE [2] | other results |
| --- | --- | --- | --- |
| 3′-DBT-TEG-guanosine 5′ triphosphate [3′ DBT-TEG-GTP] | selectively bound to the streptavidin beads and eluted with 10 mM biotin; also recorded: recovered after binding to streptavidin | effectively caps | capping of 5′ diphosphate RNA by VCE [2]: substrate for capping |
| [N-]=[N+]=N[C@H]1C[C@H](n2cnc3c(=O)[nH]c(N)nc32)O[C@@H]1COP(=O)(O)OP(=O)(O)OP(=O)(O)O [3′-azido-GTP, 3′-Azido-2′,3′ ddGTP, reference compound] |  | can be capped |  |
| 2′-DBT-TEG-guanosine 5′ triphosphate [2′ DBT-TEG-GTP] | little to no P^32; also recorded: no better than control GTP for recovery |  |  |
| C#CCO[C@H]1[C@@H](O)[C@H](n2cnc3c(=O)[nH]c(N)nc32)O[C@@H]1COP(=O)(O)OP(=O)(O)OP(=O)(O)O [3′ propargyl-GTP, 3′(O-Propargyl) Guanosine 5′ Triphosphate] |  | efficiently incorporated as a modified cap |  |
| Nc1nc2c(ncn2[C@@H]2O[C@H](COP(=O)(O)OP(=O)(O)OP(=O)(O)O)[C@@H](O)[C@H]2O)c(=O)[nH]1 [GTP, reference compound] | little to no P^32 |  |  |
| B1 |  |  | decapping of capped RNA [3]: can decap RNA |
| B2 |  |  | decapping of DTB-GTP-capped RNA [4]: effectively decaps |
